For 4 molecules, IC50 results are on record in patent US20210380548A1, “Fused [1,2,4]Thiadiazine Derivatives Which Act as KAT Inhibitors of the MYST Family” (CTxT Pty Limited, priority 2017, published 2021).

In assay [1] the test system is histone H3K23 acetylation (KATE mediated) in U2OS cells. The experiment in a line: Histone H3 Lysine 23 Acetylation Biomarker Assay (U2OS). The class given is cell-based. Particulars: Homo sapiens, 96 well, 24 hours incubation. The gist of the method:
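U2OS cells were treated with compound for 24 h, then fixed and immunostained for H3K23ac with Hoechst nuclear counterstain. Per-nucleus Alexa647 intensity was quantified by high-content imaging and converted to % inhibition against DMSO and 10 μM reference-inhibitor controls. IC50 was derived from a four-parameter logistic fit.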

Another assay addresses T1, MOF-KAT8 (Homo sapiens, UniProt Q9H7Z6).
T1 sequence (Q9H7Z6 177-447): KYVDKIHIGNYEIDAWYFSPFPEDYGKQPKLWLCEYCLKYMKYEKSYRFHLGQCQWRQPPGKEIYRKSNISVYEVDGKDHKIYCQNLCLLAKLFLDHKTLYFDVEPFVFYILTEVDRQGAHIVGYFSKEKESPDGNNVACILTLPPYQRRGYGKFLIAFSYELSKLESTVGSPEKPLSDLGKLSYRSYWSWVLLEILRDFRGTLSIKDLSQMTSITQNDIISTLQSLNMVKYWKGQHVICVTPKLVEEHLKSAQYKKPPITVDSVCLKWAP
The experiment in a line: Revised Acetyltransferase Biochemical Assay, KAT8.

For the next assay, the target named is T2, TIP60-KAT5 (Homo sapiens, UniProt Q92993).
T2 construct: encoding amino acid residues 2 to 461 (Uniprot Q92993-2) of human KAT5 isoform; made in house; host or cells: E. coli BL21 DE3
The experiment in a line: Acetyltransferase biochemical assay (AlphaScreen), KAT5. The settings on record: Table 1 (TIP60-KAT5); 0.4 μM Acetyl coenzyme A, histone H4, 10 nM enzyme. For orientation: Alpha assays give light when donor and acceptor beads are brought close together.

The target of another assay is T3, HBO-KAT7 (Homo sapiens, UniProt O95251).
T3 construct: encoding amino acid residues 325 to 611 (Uniprot 095251-1) of human KAT7; made in house; host or cells: E. coli BL21 DE3 RIL
The experiment in a line: Acetyltransferase biochemical assay (AlphaScreen), KAT7. The settings on record: Table 3 (HBO-KAT7); 0.4 μM Acetyl coenzyme A, histone H3.1, 40 nM enzyme.

A further assay addresses T4, MOZ-KAT6A (Homo sapiens, UniProt Q92794, A567V).
T4 construct: encoding amino acid residues 507 to 778 (Uniprot Q92794-1) of human KAT6A; made in house; host or cells: E. coli BL21 DE3
The experiment in a line: Acetyltransferase biochemical assay (AlphaScreen), KAT6A. Particulars: Table 2 (MOZ-KAT6A); 10 μM Acetyl coenzyme A, histone H3.1, 5 nM enzyme.

For another assay, the target named is T5, QKF-KAT6B (Homo sapiens, UniProt Q8WYB5).
T5 construct: purchased SignalChem K315-381BG
The experiment in a line: Acetyltransferase biochemical assay (AlphaScreen), KAT6B. The settings on record: Table 5 (QKF-KAT6B); 0.4 μM Acetyl coenzyme A, histone H3.1, 8 nM enzyme.

T4 sequence (Q92794 507-778 A567V limits assumed): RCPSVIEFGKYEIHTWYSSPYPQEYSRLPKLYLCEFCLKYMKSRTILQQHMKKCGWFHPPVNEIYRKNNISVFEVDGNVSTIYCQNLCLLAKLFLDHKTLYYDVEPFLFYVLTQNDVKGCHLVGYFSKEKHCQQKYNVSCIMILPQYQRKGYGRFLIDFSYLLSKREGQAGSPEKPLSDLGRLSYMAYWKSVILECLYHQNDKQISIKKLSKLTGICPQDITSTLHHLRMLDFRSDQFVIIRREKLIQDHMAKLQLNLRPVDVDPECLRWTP
T3 sequence (O95251 with tags, fused parts or gaps): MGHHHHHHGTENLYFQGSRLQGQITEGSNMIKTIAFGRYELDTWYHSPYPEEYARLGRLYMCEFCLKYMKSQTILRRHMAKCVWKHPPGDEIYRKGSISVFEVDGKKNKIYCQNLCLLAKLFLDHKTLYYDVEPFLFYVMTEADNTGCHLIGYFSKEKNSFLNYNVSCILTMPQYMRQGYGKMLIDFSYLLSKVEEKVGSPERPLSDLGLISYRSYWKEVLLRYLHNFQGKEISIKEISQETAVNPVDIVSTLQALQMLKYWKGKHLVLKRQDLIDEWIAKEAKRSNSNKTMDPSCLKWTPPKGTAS
T2 sequence (Q92993 2-461 isoform Q92993-2): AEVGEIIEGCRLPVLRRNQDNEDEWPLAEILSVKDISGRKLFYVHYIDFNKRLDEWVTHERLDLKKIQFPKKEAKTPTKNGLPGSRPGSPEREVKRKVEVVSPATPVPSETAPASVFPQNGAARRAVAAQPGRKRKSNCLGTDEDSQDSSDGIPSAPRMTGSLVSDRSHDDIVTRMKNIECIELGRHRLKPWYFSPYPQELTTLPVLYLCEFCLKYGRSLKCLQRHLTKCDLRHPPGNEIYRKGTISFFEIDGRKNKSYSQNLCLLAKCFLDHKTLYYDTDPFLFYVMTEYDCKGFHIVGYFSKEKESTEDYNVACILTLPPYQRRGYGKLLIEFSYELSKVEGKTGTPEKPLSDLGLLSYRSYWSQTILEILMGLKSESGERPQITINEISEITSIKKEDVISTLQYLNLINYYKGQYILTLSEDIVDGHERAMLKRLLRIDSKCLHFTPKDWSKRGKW
T5 sequence (Q8WYB5 whole entry): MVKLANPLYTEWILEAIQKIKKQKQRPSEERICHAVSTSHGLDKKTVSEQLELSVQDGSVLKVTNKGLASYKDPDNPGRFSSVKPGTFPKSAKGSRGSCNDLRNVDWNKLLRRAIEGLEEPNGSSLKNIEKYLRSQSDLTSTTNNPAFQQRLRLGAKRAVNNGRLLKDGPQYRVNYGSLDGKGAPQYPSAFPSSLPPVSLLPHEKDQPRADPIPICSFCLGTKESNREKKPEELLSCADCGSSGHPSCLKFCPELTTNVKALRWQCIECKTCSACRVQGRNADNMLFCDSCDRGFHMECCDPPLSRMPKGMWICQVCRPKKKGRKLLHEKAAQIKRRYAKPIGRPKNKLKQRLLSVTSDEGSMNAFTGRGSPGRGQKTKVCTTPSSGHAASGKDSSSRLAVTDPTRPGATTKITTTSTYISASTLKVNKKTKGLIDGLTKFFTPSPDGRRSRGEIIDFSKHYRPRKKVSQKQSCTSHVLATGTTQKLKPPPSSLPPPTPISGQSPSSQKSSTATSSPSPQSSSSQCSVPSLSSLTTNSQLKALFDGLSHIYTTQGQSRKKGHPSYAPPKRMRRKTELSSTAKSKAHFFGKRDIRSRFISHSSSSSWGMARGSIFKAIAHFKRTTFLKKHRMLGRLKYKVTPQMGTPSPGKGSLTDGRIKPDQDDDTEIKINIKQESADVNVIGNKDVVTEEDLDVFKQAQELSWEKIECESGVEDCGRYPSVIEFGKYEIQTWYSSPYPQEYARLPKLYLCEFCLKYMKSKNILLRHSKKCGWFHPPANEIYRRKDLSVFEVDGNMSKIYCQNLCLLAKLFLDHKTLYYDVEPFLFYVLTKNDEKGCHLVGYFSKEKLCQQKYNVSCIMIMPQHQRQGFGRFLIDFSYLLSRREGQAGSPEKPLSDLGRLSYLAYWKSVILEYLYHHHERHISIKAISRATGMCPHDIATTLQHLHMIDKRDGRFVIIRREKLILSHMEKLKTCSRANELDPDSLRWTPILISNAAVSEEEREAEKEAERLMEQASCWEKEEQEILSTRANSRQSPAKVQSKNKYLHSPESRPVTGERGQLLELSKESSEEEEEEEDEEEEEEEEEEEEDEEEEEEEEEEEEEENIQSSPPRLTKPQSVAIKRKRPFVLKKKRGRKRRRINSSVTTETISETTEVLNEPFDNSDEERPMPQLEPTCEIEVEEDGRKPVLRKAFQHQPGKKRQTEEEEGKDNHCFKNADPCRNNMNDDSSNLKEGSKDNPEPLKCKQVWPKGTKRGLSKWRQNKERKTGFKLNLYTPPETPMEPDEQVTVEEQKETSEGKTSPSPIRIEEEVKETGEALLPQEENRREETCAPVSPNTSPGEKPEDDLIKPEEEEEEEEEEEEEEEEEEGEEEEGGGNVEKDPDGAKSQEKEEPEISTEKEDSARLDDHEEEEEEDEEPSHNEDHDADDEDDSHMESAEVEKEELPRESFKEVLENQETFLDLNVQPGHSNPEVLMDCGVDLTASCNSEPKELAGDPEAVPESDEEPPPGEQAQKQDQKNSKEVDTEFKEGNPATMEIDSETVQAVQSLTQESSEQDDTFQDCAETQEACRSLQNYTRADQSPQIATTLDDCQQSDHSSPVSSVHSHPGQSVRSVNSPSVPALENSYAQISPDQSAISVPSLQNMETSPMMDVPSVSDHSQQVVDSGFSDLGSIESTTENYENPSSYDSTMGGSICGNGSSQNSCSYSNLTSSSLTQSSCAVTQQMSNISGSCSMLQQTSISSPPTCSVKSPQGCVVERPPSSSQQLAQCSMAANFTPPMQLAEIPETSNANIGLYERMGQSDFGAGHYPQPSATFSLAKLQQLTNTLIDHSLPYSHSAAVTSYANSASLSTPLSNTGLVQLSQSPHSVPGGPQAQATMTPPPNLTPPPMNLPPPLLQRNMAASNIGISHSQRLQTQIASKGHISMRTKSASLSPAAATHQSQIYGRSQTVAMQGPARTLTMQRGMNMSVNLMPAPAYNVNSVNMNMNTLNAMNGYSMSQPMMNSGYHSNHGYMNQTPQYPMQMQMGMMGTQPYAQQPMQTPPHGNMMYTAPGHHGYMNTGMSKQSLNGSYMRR

The IC50 is the midpoint of a concentration-inhibition curve. A low value points to greater potency. For `O=C(NCC(c1ccccc1)c1ncco1)C1=Nc2ccc(Br)cc2S(=O)(=O)N1` (centres unmarked) [Example 1, 7-Bromo-N-(2-(oxazol-2-yl)-2-phenylethyl)-2H-benzo[e][1,2,4]thiadiazine-3-carboxamide 1,1-dioxide], the IC50 in assay [1] was found to be 64 nM; against MOF-KAT8, 4540 nM; on TIP60-KAT5, 286 nM; against HBO-KAT7, 63.8 nM; at MOZ-KAT6A, 24.1 nM.

With `O=C(NCC(c1ccccc1)c1ncco1)C1=Nc2ccccc2S(=O)(=O)N1` (centres unmarked) [Example 46, N-(2-(oxazol-2-yl)-2-phenylethyl)-2H-benzo[e][1,2,4]thiadiazine-3-carboxamide 1,1-dioxide], the IC50 in assay [1] is 178 nM; at QKF-KAT6B it was 122 nM; on MOF-KAT8, 99400 nM; on TIP60-KAT5, 9710 nM; against HBO-KAT7, 2650 nM; against MOZ-KAT6A, 324 nM.

Turning to `O=C(NCCc1ccccc1-n1nccn1)C1=Nc2ccc(I)cc2S(=O)(=O)N1` [Example 60, N-(2-(2H-1,2,3-triazol-2-yl)phenethyl)-7-iodo-2H-benzo[e][1,2,4]thiadiazine-3-carboxamide 1,1-dioxide], the half-maximal inhibitory concentration (IC50) amounted to 1420 nM in assay [1], 24000 nM on MOF-KAT8, 327 nM against TIP60-KAT5 and 555 nM against HBO-KAT7.

Regarding `O=C(NCCc1ccccc1OC(F)F)C1=Nc2ccc(I)cc2S(=O)(=O)N1` [Example 91], the IC50 in assay [1] was 7690 nM; against MOF-KAT8 it was 21100 nM; against TIP60-KAT5, 209 nM; against HBO-KAT7 it was 339 nM; against MOZ-KAT6A, 594 nM.
